Test results published in PubChem BioAssay AID2060893 (Molecular Pharmacology Branch, DTP, NCI, 2025).

System: K86415-001-R-J1-PDC complex spheroids, viability
Assay: Anticancer human tumor K86415-001-R-J1-PDC patient-derived lung adenocarcinoma cell line growth inhibition [RAS]
Conditions: for IC50: curve of first compound; for viability, T/C: stronger effect = lower value
Method in brief: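 Agents were tested in combination matrices in half-log decrements from a top concentration at or near clinical Cmax (10 microM if undetermined). Targets were multi-cell spheroids of tumour lines plus HUVEC and MSC stromal cells.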

[1] = second compound 0.00316 µM, first compound 0.0316 µM
[2] = second compound 0.00316 µM, first compound 0.1 µM
[3] = second compound 0.00316 µM, first compound 0.316 µM
[4] = second compound 0.00316 µM, first compound 1 µM
[5] = second compound 0.00316 µM, first compound 3.16 µM
[6] = second compound 0.00316 µM, first compound 10 µM
[7] = second compound 0.01 µM, first compound 0.0316 µM
[8] = second compound 0.01 µM, first compound 0.1 µM
[9] = second compound 0.01 µM, first compound 0.316 µM
[10] = second compound 0.01 µM, first compound 1 µM
[11] = second compound 0.01 µM, first compound 3.16 µM
[12] = second compound 0.01 µM, first compound 10 µM
[13] = second compound 0.0316 µM, first compound 0.0316 µM
[14] = second compound 0.0316 µM, first compound 0.1 µM
[15] = second compound 0.0316 µM, first compound 0.316 µM
[16] = second compound 0.0316 µM, first compound 1 µM
[17] = second compound 0.0316 µM, first compound 3.16 µM
[18] = second compound 0.0316 µM, first compound 10 µM
[19] = second compound 0.1 µM, first compound 0.0316 µM
[20] = second compound 0.1 µM, first compound 0.1 µM
[21] = second compound 0.1 µM, first compound 0.316 µM
[22] = second compound 0.1 µM, first compound 1 µM
[23] = second compound 0.1 µM, first compound 3.16 µM
[24] = second compound 0.1 µM, first compound 10 µM
[25] = second compound 0.316 µM, first compound 0.0316 µM
[26] = second compound 0.316 µM, first compound 0.1 µM
[27] = second compound 0.316 µM, first compound 0.316 µM
[28] = second compound 0.316 µM, first compound 1 µM
[29] = second compound 0.316 µM, first compound 3.16 µM
[30] = second compound 0.316 µM, first compound 10 µM
[31] = second compound 1 µM, first compound 0.0316 µM
[32] = second compound 1 µM, first compound 0.1 µM
[33] = second compound 1 µM, first compound 0.316 µM
[34] = second compound 1 µM, first compound 1 µM
[35] = second compound 1 µM, first compound 3.16 µM
[36] = second compound 1 µM, first compound 10 µM
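Further: spheroids exposed to agents for seven days before readout.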

SMILES: CC1(O)CCCC1n1c(=O)c(C(F)F)cc2cnc(NC3CCN(S(C)(=O)=O)CC3)nc21 (stereo unspecified) + C=CC(=O)N1CCN(c2nc(OCC3CCCN3C)nc3c(F)c(-c4nc(N)cc(C)c4C(F)(F)F)c(Cl)cc23)C(C)C1
- IC50 (second compound 0.00316 µM): < 31.6 nM
- IC50 (second compound 0.01 µM): < 31.6 nM
- IC50 (second compound 0.0316 µM): < 31.6 nM
- IC50 (second compound 0.1 µM): < 31.6 nM
- IC50 (second compound 0.316 µM): < 31.6 nM
- IC50 (second compound 1 µM): < 31.6 nM
- viability, T/C [1]: 14.8%
- viability, T/C [2]: 16.9%
- viability, T/C [3]: 17.3%
- viability, T/C [4]: 20.2%
- viability, T/C [5]: 28.1%
- viability, T/C [6]: 5.41%
- viability, T/C [7]: 13.1%
- viability, T/C [8]: 12.6%
- viability, T/C [9]: 12.4%
- viability, T/C [10]: 12.3%
- viability, T/C [11]: 18.6%
- viability, T/C [12]: 5.34%
- viability, T/C [13]: 12.2%
- viability, T/C [14]: 10.1%
- viability, T/C [15]: 10.1%
- viability, T/C [16]: 14.8%
- viability, T/C [17]: 16.2%
- viability, T/C [18]: 4.92%
- viability, T/C [19]: 12.1%
- viability, T/C [20]: 10.8%
- viability, T/C [21]: 10.5%
- viability, T/C [22]: 11.5%
- viability, T/C [23]: 19.4%
- viability, T/C [24]: 4.11%
- viability, T/C [25]: 11.4%
- viability, T/C [26]: 11.6%
- viability, T/C [27]: 11.4%
- viability, T/C [28]: 11.4%
- viability, T/C [29]: 16.2%
- viability, T/C [30]: 5.89%
- viability, T/C [31]: 10.4%
- viability, T/C [32]: 10.3%
- viability, T/C [33]: 13.7%
- viability, T/C [34]: 14.7%
- viability, T/C [35]: 18.9%
- viability, T/C [36]: 5.93%

SMILES: CCN1CCN(Cc2ccc(Nc3ncc(F)c(-c4cc(F)c5nc(C)n(C(C)C)c5c4)n3)nc2)CC1 + C=CC(=O)N1CCN(c2nc(OCC3CCCN3C)nc3c(F)c(-c4nc(N)cc(C)c4C(F)(F)F)c(Cl)cc23)C(C)C1
- IC50 (second compound 0.00316 µM): < 3.16 nM
- IC50 (second compound 0.01 µM): < 3.16 nM
- IC50 (second compound 0.0316 µM): < 3.16 nM
- IC50 (second compound 0.1 µM): < 3.16 nM
- IC50 (second compound 0.316 µM): < 3.16 nM
- IC50 (second compound 1 µM): < 3.16 nM
- viability, T/C (second compound 0.00316 µM, first compound 0.00316 µM): 17.1%
- viability, T/C (second compound 0.00316 µM, first compound 0.01 µM): 15.9%
- viability, T/C [1]: 13.3%
- viability, T/C [2]: 15%
- viability, T/C [3]: 18.7%
- viability, T/C [4]: 33.9%
- viability, T/C (second compound 0.01 µM, first compound 0.00316 µM): 10.3%
- viability, T/C (second compound 0.01 µM, first compound 0.01 µM): 11.2%
- viability, T/C [7]: 12.3%
- viability, T/C [8]: 10.7%
- viability, T/C [9]: 13.3%
- viability, T/C [10]: 24.8%
- viability, T/C (second compound 0.0316 µM, first compound 0.00316 µM): 9.79%
- viability, T/C (second compound 0.0316 µM, first compound 0.01 µM): 12.9%
- viability, T/C [13]: 11%
- viability, T/C [14]: 10.2%
- viability, T/C [15]: 11%
- viability, T/C [16]: 18.5%
- viability, T/C (second compound 0.1 µM, first compound 0.00316 µM): 10.1%
- viability, T/C (second compound 0.1 µM, first compound 0.01 µM): 10.5%
- viability, T/C [19]: 9.47%
- viability, T/C [20]: 8.04%
- viability, T/C [21]: 10.6%
- viability, T/C [22]: 14.2%
- viability, T/C (second compound 0.316 µM, first compound 0.00316 µM): 9.47%
- viability, T/C (second compound 0.316 µM, first compound 0.01 µM): 8.55%
- viability, T/C [25]: 9.15%
- viability, T/C [26]: 9.51%
- viability, T/C [27]: 12.2%
- viability, T/C [28]: 17.6%
- viability, T/C (second compound 1 µM, first compound 0.00316 µM): 9.7%
- viability, T/C (second compound 1 µM, first compound 0.01 µM): 11.8%
- viability, T/C [31]: 11.7%
- viability, T/C [32]: 10.2%
- viability, T/C [33]: 11.2%
- viability, T/C [34]: 18.3%

SMILES: C[C@@H](NC(=O)c1ncnc(N)c1Cl)c1ncc(C(=O)Nc2cc(C(F)(F)F)c(Cl)cn2)s1 + C=CC(=O)N1CCN(c2nc(OCC3CCCN3C)nc3c(F)c(-c4nc(N)cc(C)c4C(F)(F)F)c(Cl)cc23)C(C)C1
- IC50 (second compound 0.00316 µM): < 31.6 nM
- IC50 (second compound 0.01 µM): < 31.6 nM
- IC50 (second compound 0.0316 µM): < 31.6 nM
- IC50 (second compound 0.1 µM): < 31.6 nM
- IC50 (second compound 0.316 µM): < 31.6 nM
- IC50 (second compound 1 µM): < 31.6 nM
- viability, T/C [1]: 24.3%
- viability, T/C [2]: 23.5%
- viability, T/C [3]: 23.3%
- viability, T/C [4]: 25.3%
- viability, T/C [5]: 19%
- viability, T/C [6]: 17.7%
- viability, T/C [7]: 14.8%
- viability, T/C [8]: 14.6%
- viability, T/C [9]: 14.2%
- viability, T/C [10]: 14.6%
- viability, T/C [11]: 20%
- viability, T/C [12]: 14%
- viability, T/C [13]: 12%
- viability, T/C [14]: 11.7%
- viability, T/C [15]: 10.3%
- viability, T/C [16]: 10.8%
- viability, T/C [17]: 11.4%
- viability, T/C [18]: 10.2%
- viability, T/C [19]: 13.1%
- viability, T/C [20]: 10.6%
- viability, T/C [21]: 14.1%
- viability, T/C [22]: 10.8%
- viability, T/C [23]: 9.5%
- viability, T/C [24]: 9.83%
- viability, T/C [25]: 10.6%
- viability, T/C [26]: 11.1%
- viability, T/C [27]: 10.8%
- viability, T/C [28]: 10.8%
- viability, T/C [29]: 10.5%
- viability, T/C [30]: 10.7%
- viability, T/C [31]: 10.6%
- viability, T/C [32]: 13%
- viability, T/C [33]: 13.4%
- viability, T/C [34]: 11.6%
- viability, T/C [35]: 10.8%
- viability, T/C [36]: 11.1%
